A short description of this data set: photoluminescence quantum yield (fraction); solvent given as SMILES.
[1] abbreviates: in c1cc(-n2c3ccccc3c3ccccc32)cc(-n2c3ccccc3c3ccccc32)c1.

Molecules are shown by their SMILES.

Consider `CC[C@H](C)COc1ccc(C2=C3C(C)=C(I)C(C)=[N+]3[B-](F)(F)n3c(C)c(I)c(C)c32)cc1`, for which the photoluminescence quantum yield (in ClCCl) stood at 0.06.
Consider `CC(C)(C)Nc1cc2oc3cc(NC(C)(C)C)c(F)cc3c(=O)c2cc1F`, for which the photoluminescence quantum yield (in CCO) is 0.31.
In the case of `CCCCCCN(CCCCCC)c1ccc(C#Cc2c(F)c(F)c(F)c(F)c2F)cc1`, the photoluminescence quantum yield was determined as 0.0014 (in CO) and 0.026 (in ClCCl).
With `CN(C)c1ccc(C2=Nc3scc(-c4ccc(N(C)C)cc4)[n+]3[B-](F)(F)O2)cc1`, the photoluminescence quantum yield runs as follows: (in C1CCOC1) 0.01; (in CC#N) 0; (in Cc1ccccc1) 0.66; (in ClCCl) 0.04.
The molecule `COc1ccc(C#Cc2c3ccccc3c(C#Cc3ccc(OC)cc3)c3cc4sc(C)cc4cc23)cc1` had a photoluminescence quantum yield (in ClCCl) of 0.75.
The molecule `COc1ccc(C2=C(c3ccc([N+](=O)[O-])cc3)C(c3ccccc3)=[N+]3C2=Nc2c(-c4ccc(OC)cc4)c(-c4ccc([N+](=O)[O-])cc4)c(-c4ccccc4)n2[B-]3(F)F)cc1` yielded a photoluminescence quantum yield (in Cc1ccccc1) of 0.05.
`Brc1ccc2[nH]c(-c3ccc(-c4ccc(-c5ccc(-c6nc7cc(Br)ccc7[nH]6)cc5)cc4)cc3)nc2c1` showed a photoluminescence quantum yield (in CN(C)C=O) of 0.42.
Where the note is “in ClCCl”, `COc1cc2c(cc1OC)C1=C[C@H](c3ccc(Cl)cc3)C3(C(C#N)=C(C#N)N1CC2)c1cc(Br)ccc1-c1ccc(Br)cc13` gave a photoluminescence quantum yield of 0.00019.
Same read-out and setting: as for `CN(C)c1ccc(-c2cccc3nsnc23)cc1`, the figure is 0.47; as for `c1ccc2c(c1)ccc1ccc3ccc4ccc5ccccc5c4c3c12`, 0.02.
Consider `CC1(C)CC(/C=C/c2ccc(-n3cccn3)cc2)=CC(=C(C#N)C#N)C1`, for which the photoluminescence quantum yield (in CCO) was 0.0001.
In the case of `O=S1(=O)c2ccccc2C2(c3cc(-c4ccc(N(c5ccccc5)c5ccccc5)cc4)ccc3-c3ccc(-c4ccc(N(c5ccccc5)c5ccccc5)cc4)cc32)c2ccccc21`, the photoluminescence quantum yield was determined as 0.83 (in ClCCl) and 0.9 under setting [1].
In turn, `CC1=[N+]2C(=Cc3c4c(cn3[B-]2(F)F)-c2nc-4c(-c3ccccc3)c3ccc([nH]3)c(-c3ccccc3)c3nc(c(-c4ccccc4)c4ccc([nH]4)c2-c2ccccc2)C=C3)C(C)C1` (stereo not drawn) yielded a photoluminescence quantum yield (in ClCCl) of 0.04.
`C(C1=[NH+]c2cccc3cccc1c23)=c1[nH]c2cccc3cccc1c32` displayed a photoluminescence quantum yield (in CO) of 0.0103.
With `c1ccc(N(c2ccccc2)c2ccc(-c3ccc4c(c3)C3(c5ccccc5Sc5ccccc53)c3cc(-c5ccc(N(c6ccccc6)c6ccccc6)cc5)ccc3-4)cc2)cc1`, the photoluminescence quantum yield is, setting by setting: (in ClCCl) 0.81; under setting [1], 0.88.
As for `Cc1cc2[nH]c3ccccc3c2c2[nH]c3ccccc3c12`, where the note is “in ClCCl”, the photoluminescence quantum yield amounted to 0.223.
Still for that read-out and setting: next, `CCCCCc1ccc(-c2ccc(C#Cc3cc(C#Cc4ccc(-c5ccc(CCCCC)cc5)cc4)c4ccc5c(C(=O)c6ccccc6)cc(C#Cc6ccc(-c7ccc(CCCCC)cc7)cc6)c6ccc3c4c65)cc2)cc1`: 0.51.
As for `CCC1=C(C)C2=Cc3c4ccccc4c4n3[B-](c3ccncc3)(Oc3ccccc3-4)[N+]2=C1C` (stereo not drawn), the photoluminescence quantum yield by setting is: (in CC#N) 0.73; (in CCCCCC) 0.78; (in Cc1ccccc1) 0.7; (in ClCCl) 0.7.
`O=c1c2cc(I)ccc2nc2n1[B-](F)(F)[n+]1ccccc1-2`: the photoluminescence quantum yield reads like this: (in CC#N) 0.58; (in ClCCl) 0.73.
`BrCCCCCCCCCCCCOc1cc2ccc3cccc4ccc(c1)c2c34` had a photoluminescence quantum yield (in Cc1ccccc1) of 0.59.
For the setting “in c1ccc2c(c1)c1ccccc1n2-c1ccc(-c2ccc(-n3c4ccccc4c4ccccc43)cc2)cc1”, `N#Cc1cc(N2c3ccccc3Oc3ccccc32)c(N2c3ccccc3Oc3ccccc32)cc1C#N` had a photoluminescence quantum yield of 0.064.
Take `Cc1ccc(-c2ccccc2)cc1`: the photoluminescence quantum yield (in C1CCCCC1) was 0.23.
`CN(C)c1ccc2c(C(=O)NCc3ccccc3)cc(C(=O)[O-])nc2c1` yielded a photoluminescence quantum yield (in CCO) of 0.013.

The record behind these values is the Deep4Chem optical property database.
